Earlier results as cited in US5529986A, “Conjugate, its preparation and use and a substrate prepared with the conjugate” (priority 1991, dated 1996).

Settings: heparin used for standard graphs

**Q.** For heparin, which “Known specific biological activity” value is on record?
**A.** 180 I.U./mg
